Source: US20250144094A1 (Erasca, Inc., priority 2021, published 2025)

Each molecule was assayed against Recombinant human ULK1 (1-649) (Homo sapiens (Human), UniProt O75385) (assay: ULK1 ADP Glo kinase activity assay (MBP substrate)). Settings: 25° C., 40 minutes, read-out: ULK1 biochemical IC50.
Description: Recombinant human ULK1 (1-649) protein expressed in Sf9 insect cells was obtained from SignalChem (Vancouver, BC), catalog #U01-11G. Active kinase was purified via N-terminal GST tag to >85% purity.
ADP GLO Kinase Assay Reagents were obtained from Promega Corp (Madison, WI), catalog #V9104.
MBP (myelin basic protein) substrate, bovine, purified, was obtained from Sigma (St. Louis, MO), catalog #M1891.
ULK1 inhibitor potency was determined using the luminescent ADP Glo Kinase Assay (Promega), a universal ADP detection system that measures kinase activity by quantifying the amount of ADP produced during a kinase reaction. ULK1 kinase reactions are performed in a standard 96-well microplate (20 uL reaction volume) at 25° C. for 40 minutes in the presence or absence of the test compound (12-point dilution series starting at 10 uM). Addition of MBP substrate and ATP initiates the kinase reaction.
The standard ADP Glo assay is performed in two steps. In step one, following the kinase reaction, an equal volume of ADP-Glo™ Reagent (20 uL) is added to terminate the kinase reaction and deplete the remaining ATP. In the second step, the Kinase Detection Reagent (10 uL) is added to simultaneously convert ADP to ATP and allow the newly synthesized ATP to be measured using a luciferase/luciferin reaction. Step two of the ADP Glo assay is performed in a white 384-well plate (20 uL final volume). Thirty minutes after the addition of the Detection reagent, light generated from the luciferase reaction is measured (1 second exposure) using a microplate compatible luminometer (CLARIOstar, BMG Labtech).
Inhibition of ULK1 kinase activity is determined for each test compound by comparison to DMSO only control wells. Inhibitor IC50 was calculated by plotting the change in luminescence after 30 minutes (response) versus inhibitor concentration (in log molar) then applying the four-parameter variable slope curve fit (GraphPad Prism). Inhibition of ULK1 in biochemical assay is found in Table 3.

Recombinant human ULK1 (1-649), sequence (O75385 1-649): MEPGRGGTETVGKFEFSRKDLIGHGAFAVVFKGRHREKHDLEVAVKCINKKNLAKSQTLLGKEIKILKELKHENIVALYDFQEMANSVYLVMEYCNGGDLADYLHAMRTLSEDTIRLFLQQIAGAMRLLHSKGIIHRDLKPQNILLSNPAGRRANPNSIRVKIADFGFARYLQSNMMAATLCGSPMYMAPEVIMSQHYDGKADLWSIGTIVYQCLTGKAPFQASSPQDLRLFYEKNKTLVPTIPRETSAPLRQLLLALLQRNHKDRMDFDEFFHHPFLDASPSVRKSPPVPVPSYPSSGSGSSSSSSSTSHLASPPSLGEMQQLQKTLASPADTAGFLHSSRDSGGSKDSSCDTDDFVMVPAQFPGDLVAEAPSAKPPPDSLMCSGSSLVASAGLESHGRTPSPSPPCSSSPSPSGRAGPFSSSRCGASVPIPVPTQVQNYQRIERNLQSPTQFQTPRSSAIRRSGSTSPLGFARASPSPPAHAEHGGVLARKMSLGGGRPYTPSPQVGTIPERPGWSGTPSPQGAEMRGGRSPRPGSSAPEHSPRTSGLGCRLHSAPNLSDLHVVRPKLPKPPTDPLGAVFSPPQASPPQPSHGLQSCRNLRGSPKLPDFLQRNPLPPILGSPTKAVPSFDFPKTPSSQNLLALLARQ

Compound	IC50 [nM]
CN1Cc2cc(Cl)c(Nc3ncc(C(F)(F)F)c(-c4cc(C(N)=O)cs4)n3)cc2C1 [Example 17, 5-(2-((6-Chloro-2-methylisoindolin-5-yl)amino)-5-(trifluoromethyl)pyrimidin-4-yl)thiophene-3-carboxamide]	≤ 10
FC(F)(F)c1cnc(Nc2cc3c(cc2Cl)CNCC3)nc1-c1cc(-c2ncco2)cs1 [Example 18, 7-Chloro-N-(4-(4-(oxazol-2-yl)thiophen-2-yl)-5-(trifluoromethyl)pyrimidin-2-yl)-1,2,3,4-tetrahydroisoquinolin-6-amine]	10 to 50
CN1Cc2cc(Nc3ncc(C(F)(F)F)c(-c4cc(C(N)=O)cs4)n3)c(C3CC3)cc2C1 [Example 19, 5-(2-((6-Cyclopropyl-2-methylisoindolin-5-yl)amino)-5-(trifluoromethyl)pyrimidin-4-yl)thiophene-3-carboxamide]	≤ 10
CCc1cc2c(cc1Nc1ncc(C(F)(F)F)c(-c3cc(C(N)=O)cs3)n1)CN(C)C2 [Example 20, 5-(2-((6-Ethyl-2-methylisoindolin-5-yl)amino)-5-(trifluoromethyl)pyrimidin-4-yl)thiophene-3-carboxamide]	10 to 50
CN1CCc2sc(-c3nc(Nc4cc5c(cc4Cl)CNCC5)ncc3C(F)(F)F)cc2C1=O [Example 21, 2-(2-((7-Chloro-1,2,3,4-tetrahydroisoquinolin-6-yl)amino)-5-(trifluoromethyl)pyrimidin-4-yl)-5-methyl-6,7-dihydrothieno[3,2-c]pyridin-4(5H)-one]	≤ 10
CCN1CCc2sc(-c3nc(Nc4cc5c(cc4Cl)CNCC5)ncc3C(F)(F)F)cc2C1=O [Example 22, 2-(2-((7-chloro-1,2,3,4-tetrahydroisoquinolin-6-yl)amino)-5-(trifluoromethyl)pyrimidin-4-yl)-5-ethyl-6,7-dihydrothieno[3,2-c]pyridin-4(5H)-one]	≤ 10
O=c1[nH]ccc2sc(-c3nc(Nc4cc5c(cc4Cl)CNCC5)ncc3C(F)(F)F)cc12 [Example 23, 2-(2-((7-Chloro-1,2,3,4-tetrahydroisoquinolin-6-yl)amino)-5-(trifluoromethyl)pyrimidin-4-yl)thieno[3,2-c]pyridin-4(5H)-one]	≤ 10
O=c1[nH]ncc2sc(-c3nc(Nc4cc5c(cc4Cl)CNCC5)ncc3C(F)(F)F)cc12 [Example 24, 2-(2-((7-Chloro-1,2,3,4-tetrahydroisoquinolin-6-yl)amino)-5-(trifluoromethyl)pyrimidin-4-yl)thieno[2,3-d]pyridazin-4(5H)-one]	10 to 50
N#Cc1csc(-c2nc(Nc3cc4c(cc3Cl)CNCC4)ncc2C(F)(F)F)c1 [Example 25, 5-(2-((7-Chloro-1,2,3,4-tetrahydroisoquinolin-6-yl)amino)-5-(trifluoromethyl)pyrimidin-4-yl)thiophene-3-carbonitrile]	10 to 50
NC(=O)c1csc(-c2nc(Nc3cc4c(cc3Cl)CNCC4)ncc2C(N)=O)c1 [Example 26, 4-(4-Carbamoylthiophen-2-yl)-2-((7-chloro-1,2,3,4-tetrahydroisoquinolin-6-yl)amino)pyrimidine-5-carboxamide]	> 500
NS(=O)(=O)c1csc(-c2nc(Nc3cc4c(cc3Cl)CNCC4)ncc2C(F)(F)F)c1 [Example 27, 5-(2-((7-Chloro-1,2,3,4-tetrahydroisoquinolin-6-yl)amino)-5-(trifluoromethyl)pyrimidin-4-yl)thiophene-3-sulfonamide]	≤ 10
O=C1NCCCc2sc(-c3nc(Nc4cc5c(cc4Cl)CNCC5)ncc3C(F)(F)F)cc21 [Example 28, 2-(2-((7-Chloro-1,2,3,4-tetrahydroisoquinolin-6-yl)amino)-5-(trifluoromethyl)pyrimidin-4-yl)-5,6,7,8-tetrahydro-4H-thieno[3,2-c]azepin-4-one]	≤ 10
O=C1NCCc2sc(-c3nc(Nc4cc5c(cc4C4CC4)CNCC5)ncc3C(F)(F)F)cc21 [Example 29, 2-(2-((7-Cyclopropyl-1,2,3,4-tetrahydroisoquinolin-6-yl)amino)-5-(trifluoromethyl)pyrimidin-4-yl)-6,7-dihydrothieno[3,2-c]pyridin-4(5H)-one]	≤ 10
Cn1ccc2sc(-c3nc(Nc4cc5c(cc4Cl)CNCC5)ncc3C(F)(F)F)cc2c1=O [Example 30, 2-(2-((7-Chloro-1,2,3,4-tetrahydroisoquinolin-6-yl)amino)-5-(trifluoromethyl)pyrimidin-4-yl)-5-methylthieno[3,2-c]pyridin-4(5H)-one]	≤ 10
Cn1ncc2sc(-c3nc(Nc4cc5c(cc4Cl)CNCC5)ncc3C(F)(F)F)cc2c1=O [Example 31, 2-(2-((7-Chloro-1,2,3,4-tetrahydroisoquinolin-6-yl)amino)-5-(trifluoromethyl)pyrimidin-4-yl)-5-methylthieno[2,3-d]pyridazin-4(5H)-one]	≤ 10
CS(=O)(=O)c1csc(-c2nc(Nc3cc4c(cc3Cl)CNCC4)ncc2C(F)(F)F)c1 [Example 32, 7-Chloro-N-(4-(4-(methylsulfonyl)thiophen-2-yl)-5-(trifluoromethyl)pyrimidin-2-yl)-1,2,3,4-tetrahydroisoquinolin-6-amine]	≤ 10
O=C1NCCc2sc(-c3nc(Nc4cc5c(cc4Cl)CNC5)ncc3C(F)(F)F)cc21 [Example 33, 2-(2-((6-Chloroisoindolin-5-yl)amino)-5-(trifluoromethyl)pyrimidin-4-yl)-6,7-dihydrothieno[3,2-c]pyridin-4(5H)-one]	≤ 10
CCc1cc2c(cc1Nc1ncc(C(F)(F)F)c(-c3cc4c(s3)CCNC4=O)n1)CCNC2 [Example 34, 2-(2-((7-ethyl-1,2,3,4-tetrahydroisoquinolin-6-yl)amino)-5-(trifluoromethyl)pyrimidin-4-yl)-6,7-dihydrothieno[3,2-c]pyridin-4(5H)-one]	≤ 10
CSc1cc2c(cc1Nc1ncc(C(F)(F)F)c(-c3cc4c(s3)CCNC4=O)n1)CCNC2 [Example 35, 2-(2-((7-(Methylthio)-1,2,3,4-tetrahydroisoquinolin-6-yl)amino)-5-(trifluoromethyl)pyrimidin-4-yl)-6,7-dihydrothieno[3,2-c]pyridin-4(5H)-one]	≤ 10
CN1CCN(c2ccc(Nc3ncc(C(F)(F)F)c(-c4cc5c(s4)CCNC5=O)n3)c(C3CC3)c2)CC1 [Example 36, 2-(2-((2-Cyclopropyl-4-(4-methylpiperazin-1-yl)phenyl)amino)-5-(trifluoromethyl)pyrimidin-4-yl)-6,7-dihydrothieno[3,2-c]pyridin-4(5H)-one]	≤ 10
CCc1cc(N2CCN(C)CC2)ccc1Nc1ncc(C(F)(F)F)c(-c2cc(C(N)=O)cs2)n1 [Example 37, 5-(2-((2-Ethyl-4-(4-methylpiperazin-1-yl)phenyl)amino)-5-(trifluoromethyl)pyrimidin-4-yl)thiophene-3-carboxamide]	≤ 10
CP(C)(=O)c1csc(-c2nc(Nc3cc4c(cc3Cl)CNCC4)ncc2C(F)(F)F)c1 [Example 38, (5-(2-((7-Chloro-1,2,3,4-tetrahydroisoquinolin-6-yl)amino)-5-(trifluoromethyl)pyrimidin-4-yl)thiophen-3-yl)dimethylphosphine oxide]	10 to 50
CCc1cc(N2CCN(C)CC2)ccc1Nc1ncc(C(F)(F)F)c(-c2cc3c(s2)CCNC3=O)n1 [Example 39, 2-(2-((2-ethyl-4-(4-methylpiperazin-1-yl)phenyl)amino)-5-(trifluoromethyl)pyrimidin-4-yl)-6,7-dihydrothieno[3,2-c]pyridin-4(5H)-one]	≤ 10
CC1(C)NC(=O)c2cc(-c3nc(Nc4cc5c(cc4Cl)CNCC5)ncc3C(F)(F)F)sc21 [Example 40, 2-(2-((7-chloro-1,2,3,4-tetrahydroisoquinolin-6-yl)amino)-5-(trifluoromethyl)pyrimidin-4-yl)-6,6-dimethyl-5,6-dihydro-4H-thieno[2,3-c]pyrrol-4-one]	≤ 10
COCCN1CCCc2sc(-c3nc(Nc4cc5c(cc4Cl)CNCC5)ncc3C(F)(F)F)cc2C1=O [Example 41, 2-(2-((7-chloro-1,2,3,4-tetrahydroisoquinolin-6-yl)amino)-5-(trifluoromethyl)pyrimidin-4-yl)-5-(2-methoxyethyl)-5,6,7,8-tetrahydro-4H-thieno[3,2-c]azepin-4-one]	10 to 50
CN1C(=O)c2cc(-c3nc(Nc4cc5c(cc4Cl)CNCC5)ncc3C(F)(F)F)sc2C1(C)C [Example 42, 2-(2-((7-chloro-1,2,3,4-tetrahydroisoquinolin-6-yl)amino)-5-(trifluoromethyl)pyrimidin-4-yl)-5,6,6-trimethyl-5,6-dihydro-4H-thieno[2,3-c]pyrrol-4-one]	≤ 10
O=C1NCCc2sc(-c3nc(Nc4cc5c(cc4F)CNCC5)ncc3C(F)(F)F)cc21 [Example 43, 2-(2-((7-fluoro-1,2,3,4-tetrahydroisoquinolin-6-yl)amino)-5-(trifluoromethyl)pyrimidin-4-yl)-6,7-dihydrothieno[3,2-c]pyridin-4(5H)-one]	≤ 10
